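Cultured in 96-well plates, cells were exposed to test compound for 48 hours across five concentrations. GI50: concentration for 50% inhibition of growth.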 Active and inactive are the calls of the source. Cut-off read from the data, not from the text of the source: active = GI50 up to about 1.1 µM and inactive = higher. *1 amine or outer side, *2 acyl side, *3 side chain or, on linkers, in order; H or OH if unused. Where a SMILES comes first, the peptide text is derived from it. [ ]: non-standard residue; d: D form. The star is where a group is joined. ξ: configuration not given here. X53 = CC(C)C[C@H](N[*:1])C1=N[C@H](C(=O)[*:2])CS1; Ile(3ξ) = CCC(C)[C@H](N)C(=O)O; Allyl(1,1-Me2) = C=CC(C)(C)*
Columns and labels:
Experiment in all cases: growth of human tumour cells (NCI), 48 h
M14 = test system: M14
Hs-578T = test system: Hs-578T
NCI-H23 = test system: NCI-H23
HL-60 = test system: HL-60
HCT-116 = test system: HCT-116
SK-MEL-5 = test system: SK-MEL-5
MDA-MB-231 = test system: MDA-MB-231
A498 = test system: A498
SNB-75 = test system: SNB-75
SN12C = test system: SN12C
NCI/ADR-RES = test system: NCI/ADR-RES
MDA-MB-435 = test system: MDA-MB-435
OVCAR-4 = test system: OVCAR-4
SK-MEL-28 = test system: SK-MEL-28
OVCAR-3 = test system: OVCAR-3
NCI-H522 = test system: NCI-H522
K562 = test system: K562
A549 = test system: A549
HT-29 = test system: HT-29
SF-295 = test system: SF-295

Structure (SMILES)	GI50 (M14)	GI50 (Hs-578T)	GI50 (NCI-H23)	GI50 (HL-60)	GI50 (HCT-116)	GI50 (SK-MEL-5)	GI50 (MDA-MB-231)	GI50 (A498)	GI50 (SNB-75)	GI50 (SN12C)	GI50 (NCI/ADR-RES)	GI50 (MDA-MB-435)	GI50 (OVCAR-4)	GI50 (SK-MEL-28)	GI50 (OVCAR-3)	GI50 (NCI-H522)	GI50 (K562)	GI50 (A549)	GI50 (HT-29)	GI50 (SF-295)
Cc1nc2c(o1)C(=O)c1ccccc1/C2=N/C1CCCCC1N (stereo unspecified)	0.425 µM (active)	0.644 µM (active)	0.0975 µM (active)	0.2 µM (active)	0.259 µM (active)	0.11 µM (active)	0.373 µM (active)	1.73 µM (inactive)	0.206 µM (active)	0.386 µM (active)	0.288 µM (active)	0.162 µM (active)	0.308 µM (active)	0.166 µM (active)	0.249 µM (active)	1.06 µM (active)	0.235 µM (active)	1.46 µM (inactive)	2.28 µM (inactive)	–
CCN(CCCl)c1cc(CN(C)C)cc(NC(=O)c2cc(C(=O)Nc3cc(CN(C)C)cc(N(CC)CCCl)c3)n(C)n2)c1	0.381 µM (active)	0.197 µM (active)	0.284 µM (active)	0.0115 µM (active)	0.227 µM (active)	1.09 µM (active)	1.53 µM (inactive)	2 µM (inactive)	0.271 µM (active)	0.3 µM (active)	10.3 µM (inactive)	0.213 µM (active)	0.485 µM (active)	1.48 µM (inactive)	–	0.115 µM (active)	0.124 µM (active)	0.136 µM (active)	0.136 µM (active)	0.78 µM (active)
Nc1nc2cc3nc(N)c(N)nc3cc2nc1N	> 100 µM (inactive)	> 100 µM (inactive)	> 100 µM (inactive)	30.1 µM (inactive)	84.3 µM (inactive)	> 100 µM (inactive)	> 100 µM (inactive)	> 100 µM (inactive)	> 100 µM (inactive)	> 100 µM (inactive)	> 100 µM (inactive)	> 100 µM (inactive)	–	> 100 µM (inactive)	> 100 µM (inactive)	> 100 µM (inactive)	> 10 µM (inactive)	> 100 µM (inactive)	> 100 µM (inactive)	> 100 µM (inactive)
COC1/C=C/C(C)C(C(C)C(OC)C(C)CCC(=O)C(C)C(CC(=O)O)OC)OC(=O)/C=C/C=C(\C)CC(OC)CC2=CC(=O)O[C@H](C2)C(C)C(OC)CC(OC)/C=C/C(C)C(OC)C1 (stereo partly specified)	0.222 µM (active)	0.0759 µM (active)	0.879 µM (active)	0.118 µM (active)	–	0.455 µM (active)	0.45 µM (active)	0.24 µM (active)	0.00746 µM (active)	2.96 µM (inactive)	2.66 µM (inactive)	0.265 µM (active)	0.275 µM (active)	0.101 µM (active)	1.07 µM (active)	0.0259 µM (active)	1.79 µM (inactive)	0.299 µM (active)	0.916 µM (active)	0.258 µM (active)
CCCC(CCN)(CCN)[N+](=O)[O-]	> 100 µM (inactive)	> 100 µM (inactive)	> 100 µM (inactive)	> 100 µM (inactive)	> 100 µM (inactive)	> 100 µM (inactive)	> 100 µM (inactive)	> 100 µM (inactive)	11.2 µM (inactive)	> 100 µM (inactive)	> 100 µM (inactive)	> 100 µM (inactive)	> 100 µM (inactive)	–	–	> 100 µM (inactive)	> 100 µM (inactive)	> 100 µM (inactive)	> 100 µM (inactive)	> 100 µM (inactive)
O=[N+]([O-])c1ccc2oc(=N/c3ccccc3)/c(=N\c3ccccc3)[nH]c2c1	–	19.7 µM (inactive)	57.4 µM (inactive)	> 100 µM (inactive)	48.2 µM (inactive)	75.9 µM (inactive)	7.87 µM (inactive)	59.4 µM (inactive)	18 µM (inactive)	46.5 µM (inactive)	51.1 µM (inactive)	> 100 µM (inactive)	37.9 µM (inactive)	> 100 µM (inactive)	–	6.97 µM (inactive)	> 100 µM (inactive)	59.8 µM (inactive)	87.3 µM (inactive)	47.9 µM (inactive)
C=CC(C)(C)OC[C@@H]1NC(=O)CNC(=O)[C@@H]2CCCN2C(=O)[C@H](C(C)CC)NC(=O)[C@@H]2CSC(=N2)[C@H](CC(C)C)NC1=O (stereo partly specified) (cyclo(GS(Allyl(1,1-Me2))[X53][Ile(3ξ)]P))	> 100 µM (inactive)	23.2 µM (inactive)	43.9 µM (inactive)	29.2 µM (inactive)	56.5 µM (inactive)	32.6 µM (inactive)	> 100 µM (inactive)	> 100 µM (inactive)	34.5 µM (inactive)	> 100 µM (inactive)	> 100 µM (inactive)	26.4 µM (inactive)	22.3 µM (inactive)	–	47.9 µM (inactive)	32.9 µM (inactive)	41.7 µM (inactive)	80 µM (inactive)	84.7 µM (inactive)	45.2 µM (inactive)
CN1CCN(CC(=O)N2CCCn3c2nc2ccccc2c3=O)CC1	> 100 µM (inactive)	> 100 µM (inactive)	> 100 µM (inactive)	> 100 µM (inactive)	> 100 µM (inactive)	> 100 µM (inactive)	> 100 µM (inactive)	> 100 µM (inactive)	> 100 µM (inactive)	> 100 µM (inactive)	> 100 µM (inactive)	> 100 µM (inactive)	> 100 µM (inactive)	–	> 100 µM (inactive)	> 100 µM (inactive)	> 100 µM (inactive)	> 100 µM (inactive)	> 100 µM (inactive)	> 100 µM (inactive)
CC(C)N1CCN(c2ccc(OCC3COC(Cn4cncn4)(c4ccc(Cl)cc4Cl)O3)cc2)CC1 (stereo unspecified) [TERCONAZOLE]	–	12.2 µM (inactive)	14.2 µM (inactive)	15.4 µM (inactive)	11.2 µM (inactive)	2.18 µM (inactive)	14 µM (inactive)	14 µM (inactive)	12.8 µM (inactive)	15.8 µM (inactive)	16.7 µM (inactive)	4.97 µM (inactive)	17.2 µM (inactive)	4.63 µM (inactive)	13.5 µM (inactive)	15.2 µM (inactive)	3.47 µM (inactive)	> 35.8 µM (inactive)	3.62 µM (inactive)	12.8 µM (inactive)
Cc1nc2ccc(NC3OC(CO)C(O)C(O)C3O)cc2c(=O)n1-c1ccccc1 (stereo unspecified)	–	> 100 µM (inactive)	> 100 µM (inactive)	> 100 µM (inactive)	> 100 µM (inactive)	58.3 µM (inactive)	> 100 µM (inactive)	> 100 µM (inactive)	> 100 µM (inactive)	> 100 µM (inactive)	> 100 µM (inactive)	> 100 µM (inactive)	> 100 µM (inactive)	> 100 µM (inactive)	> 100 µM (inactive)	> 100 µM (inactive)	> 100 µM (inactive)	–	> 100 µM (inactive)	> 100 µM (inactive)
Cc1ccc(S(=O)(=O)NC(CCC(=O)NNc2ccccc2)C(=O)NNc2ccccc2)cc1 (stereo unspecified)	9.53 µM (inactive)	64.1 µM (inactive)	61.4 µM (inactive)	> 100 µM (inactive)	30.7 µM (inactive)	98.4 µM (inactive)	> 100 µM (inactive)	> 100 µM (inactive)	> 100 µM (inactive)	–	> 100 µM (inactive)	> 100 µM (inactive)	25.8 µM (inactive)	–	54.6 µM (inactive)	> 100 µM (inactive)	85.9 µM (inactive)	15.6 µM (inactive)	13.2 µM (inactive)	10.4 µM (inactive)
Cc1cc(OCc2nnc3n2S(=O)(=O)c2ccccc2N3C)ccc1Cl	> 100 µM (inactive)	40.8 µM (inactive)	34.4 µM (inactive)	21 µM (inactive)	39.5 µM (inactive)	38.7 µM (inactive)	16.3 µM (inactive)	24.6 µM (inactive)	–	32.4 µM (inactive)	35.7 µM (inactive)	> 100 µM (inactive)	8 µM (inactive)	86.5 µM (inactive)	19.5 µM (inactive)	6.79 µM (inactive)	68.7 µM (inactive)	44.9 µM (inactive)	52 µM (inactive)	18.8 µM (inactive)
CC(C)=CCC[C@@H](C)c1c2nc3ccccc3[nH]c-2c(C)c(=O)c1O	1.44 µM (inactive)	2.28 µM (inactive)	1.89 µM (inactive)	0.383 µM (active)	1.36 µM (inactive)	1.63 µM (inactive)	1.73 µM (inactive)	2.12 µM (inactive)	1.71 µM (inactive)	1.24 µM (inactive)	0.771 µM (active)	2.73 µM (inactive)	2.88 µM (inactive)	4.38 µM (inactive)	0.363 µM (active)	–	1.41 µM (inactive)	2.37 µM (inactive)	5.32 µM (inactive)	0.946 µM (active)
Cc1ncc([N+](=O)[O-])n1CCNC(=O)CCCCCn1ccnc1[N+](=O)[O-]	> 100 µM (inactive)	> 100 µM (inactive)	> 100 µM (inactive)	> 100 µM (inactive)	> 100 µM (inactive)	> 100 µM (inactive)	> 100 µM (inactive)	> 100 µM (inactive)	> 100 µM (inactive)	> 100 µM (inactive)	> 100 µM (inactive)	> 100 µM (inactive)	–	–	> 100 µM (inactive)	> 100 µM (inactive)	> 100 µM (inactive)	> 100 µM (inactive)	> 100 µM (inactive)	> 100 µM (inactive)

Reference: ChEMBL document CHEMBL1201862, “PubChem BioAssay data set” (2004)
